In patent publication US20110124877A1, “5-BENZYL-4-AZOLYLMETHYL-4-SPIRO[2.4]HEPTANOL DERIVATIVES, METHODS FOR PRODUCING THE SAME, AND AGRO-HORTICULTURAL AGENTS AND INDUSTRIAL MATERIAL PROTECTING AGENTS THEREOF” (KUREHA CORPORATION, priority 2008, published 2011):

Experiments:
[1] = system: wood denaturing microorganism (Tyromyces palustris); assay: Antimicroorganism effect, mycelial extension on PDA plate; assay type: cell-based; settings: PDA plate medium, 50 mg/l, 1 to 3 days, read-out: growth inhibition grade
[2] = system: barley stripe microorganism (Pyrenophora graminea); assay: as above; assay type: cell-based; settings: PDA plate medium, 50 mg/l, 1 to 3 days, read-out: growth inhibition grade
[3] = system: wheat fusarium blight microorganism (Fusarium graminearum); assay: microbe, parasite or virus in culture; assay type: cell-based; settings: read-out: growth inhibition grade
[4] = system: penicillium microorganism (Penicillium sp.); assay: Antimicroorganism effect, mycelial extension on PDA plate; assay type: cell-based; settings: PDA plate medium, 50 mg/l, 1 to 3 days, read-out: growth inhibition grade
[5] = system: wheat septoria bloth microorganism (Septoria tritici); assay: as above; assay type: cell-based; settings: Zymoseptoria tritici, PDA plate medium, 50 mg/l, 1 to 3 days, read-out: growth inhibition grade
[6] = system: Tricoderma microorganism (Trichoderma sp.); assay: as above; assay type: cell-based; settings: PDA plate medium, 50 mg/l, 1 to 3 days, read-out: growth inhibition grade
[7] = system: cucumber gray mold microorganism; assay: Cucumber gray mold preventing effect assay; assay type: in vivo, Botrytis cinerea; settings: analogous assay at 25 mg/l
Experimental: The sprayed leaves were air-dried, and loaded with a paper disc (8 mm in diameter) soaked with a spore suspension of a cucumber gray mold microorganism, and kept at 20 degrees C. and a high humidity. 4 Days after inoculation, the cucumber gray mold severity was investigated, and the protective value was calculated by the following equation. [table]

[8] = system: rice blast microorganism (Pyricularia oryzae); assay: microbe, parasite or virus in culture; assay type: cell-based; settings: read-out: growth inhibition grade
[9] = system: rice seedling blight microorganism (Rhizopus) (Rhizopus oryzae); assay: Antimicroorganism effect, mycelial extension on PDA plate; assay type: cell-based; settings: Rhizopus arrhizus, PDA plate medium, 50 mg/l, 1 to 3 days, read-out: growth inhibition grade
[10] = system: sclerotinia rot microorganism (Sclerotinia sclerotiorum); assay: as above; assay type: cell-based; settings: PDA plate medium, 50 mg/l, 1 to 3 days, read-out: growth inhibition grade
[11] = system: wheat stagonospora blotch microorganism (Phaeosphaeria nodorum); assay: as above; assay type: cell-based; settings: Parastagonospora nodorum, PDA plate medium, 50 mg/l, 1 to 3 days, read-out: growth inhibition grade
[12] = system: wheat take-all microorganism (Gaeumannomyces graminis); assay: as above; assay type: cell-based; settings: PDA plate medium, 50 mg/l, 1 to 3 days, read-out: growth inhibition grade
[13] = system: citrous blue mold microorganism (Penicillium italicum); assay: as above; assay type: cell-based; settings: PDA plate medium, 50 mg/l, 1 to 3 days, read-out: growth inhibition grade
[14] = system: Cladosporium microorganism (Cladosporium sp.); assay: as above; assay type: cell-based; settings: PDA plate medium, 50 mg/l, 1 to 3 days, read-out: growth inhibition grade
[15] = system: Aureobasidium microorganism (Aureobasidium sp.); assay: as above; assay type: cell-based; settings: PDA plate medium, 50 mg/l, 1 to 3 days, read-out: growth inhibition grade
[16] = system: Curvularia microorganism (Curvularia sp.); assay: as above; assay type: cell-based; settings: PDA plate medium, 50 mg/l, 1 to 3 days, read-out: growth inhibition grade
[17] = system: barley loose smut microorganism (Ustilago nuda); assay: as above; assay type: cell-based; settings: PDA plate medium, 50 mg/l, 1 to 3 days, read-out: growth inhibition grade
[18] = system: Mucor microorganism (Mucor sp.); assay: as above; assay type: cell-based; settings: PDA plate medium, 50 mg/l, 1 to 3 days, read-out: growth inhibition grade
[19] = system: cucumber fusarium wilt microorganism (Fusarium oxysporum); assay: as above; assay type: cell-based; settings: PDA plate medium, 50 mg/l, 1 to 3 days, read-out: growth inhibition grade
[20] = system: barley scald microorganism (Rhynchosporium secalis); assay: as above; assay type: cell-based; settings: PDA plate medium, 50 mg/l, 1 to 3 days, read-out: growth inhibition grade
[21] = system: wheat pink snow mold microorganism (Microdochium nivale); assay: as above; assay type: cell-based; settings: PDA plate medium, 50 mg/l, 1 to 3 days, read-out: growth inhibition grade
[22] = system: ricesheath blight microorganism (Rhizoctonia solani); assay: as above; assay type: cell-based; settings: PDA plate medium, 50 mg/l, 1 to 3 days, read-out: growth inhibition grade
[23] = system: sugar beet cercospora leaf spot microorganism (Cercospora beticola); assay: as above; assay type: cell-based; settings: PDA plate medium, 50 mg/l, 1 to 3 days, read-out: growth inhibition grade
[24] = system: anthracnose microorganism (Glomerella cingulata); assay: as above; assay type: cell-based; settings: Colletotrichum gloeosporioides, PDA plate medium, 50 mg/l, 1 to 3 days, read-out: growth inhibition grade
[25] = system: Aspergillus microorganism (Aspergillus sp.); assay: Antimicroorganism effect, mycelial extension on PDA plate; assay type: cell-based; settings: PDA plate medium, 50 mg/l, 1 to 3 days, read-out: growth inhibition grade
[26] = system: rice bakanae disease microorganism (Giberella fujikuroi); assay: as above; assay type: cell-based; settings: PDA plate medium, 50 mg/l, 1 to 3 days, read-out: growth inhibition grade
[27] = system: gray mold microorganism (Botritis cinerea); assay: as above; assay type: cell-based; settings: PDA plate medium, 50 mg/l, 1 to 3 days, read-out: growth inhibition grade
[28] = system: wheat eye spot microorganism (Pseudocercosporella herpotrichoides); assay: as above; assay type: cell-based; settings: Oculimacula yallundae, PDA plate medium, 50 mg/l, 1 to 3 days, read-out: growth inhibition grade
[29] = system: wood denaturing microorganism (Coriolus versicolor); assay: as above; assay type: cell-based; settings: Trametes versicolor, PDA plate medium, 50 mg/l, 1 to 3 days, read-out: growth inhibition grade
[30] = system: apple alternaria blotch microorganism (Alternaria alternata); assay: as above; assay type: cell-based; settings: PDA plate medium, 50 mg/l, 1 to 3 days, read-out: growth inhibition grade

## OC1(Cn2cncn2)C(Cc2ccc(Cl)cc2)CCC12CC2 (single isomer, unassigned) [Compound I-1, 5-(4-chlorobenzyl)-4-(1H-1,2,4-triazol-1-ylmethyl)-4-spiro[2.4]heptanol]
[1]
  inhibition at 50 µg/mL: > 90%
[2]
  inhibition at 50 µg/mL: > 90%
[3]
  inhibition at 50 µg/mL: > 90%
[4]
  inhibition at 50 µg/mL: > 90%
[5]
  inhibition at 50 µg/mL: > 90%
[6]
  inhibition at 50 µg/mL: > 90%
[7]
  Controlling value: 100%
  activity compared with Compound (A): higher activity
[8]
  inhibition at 50 µg/mL: > 90%
[9]
  inhibition at 50 µg/mL: 70 to 90%
[10]
  inhibition at 50 µg/mL: > 90%
[11]
  inhibition at 50 µg/mL: > 90%
[12]
  inhibition at 50 µg/mL: > 90%
[13]
  inhibition at 50 µg/mL: > 90%
[14]
  inhibition at 50 µg/mL: > 90%
[15]
  inhibition at 50 µg/mL: 70 to 90%
[16]
  inhibition at 50 µg/mL: 70 to 90%
[17]
  inhibition at 50 µg/mL: 70 to 90%
[18]
  inhibition at 50 µg/mL: 70 to 90%
[19]
  inhibition at 50 µg/mL: > 90%
[20]
  inhibition at 50 µg/mL: > 90%
[21]
  inhibition at 50 µg/mL: 70 to 90%
[22]
  inhibition at 50 µg/mL: 70 to 90%
[23]
  inhibition at 50 µg/mL: > 90%
[24]
  inhibition at 50 µg/mL: > 90%
other
  melting point: 85.5 to 87 °C
[25]
  inhibition at 50 µg/mL: > 90%
[26]
  inhibition at 50 µg/mL: > 90%
[27]
  inhibition at 50 µg/mL: > 90%
[28]
  inhibition at 50 µg/mL: > 90%
[29]
  inhibition at 50 µg/mL: > 90%
[30]
  inhibition at 50 µg/mL: 70 to 90%
